In ChEMBL document CHEMBL5247659, “Design, Structure-Activity Relationships, and In Vivo Evaluation of Potent and Brain-Penetrant Imidazo[1,2-b]pyridazines as Glycogen Synthase Kinase-3β (GSK-3β) Inhibitors” (J Med Chem, 2023):
Values belong to the molecule of their own block, whether it stands above or below them.

Legend:
[1] = Inhibition of N-terminal 6-His tagged human recombinant GSK3-beta H355L mutant using FL-KRREILSRRP[ps]ERYR-NH2 as substrate incubated for 20 hrs
[2] = target: Glycogen synthase kinase-3 alpha (Homo sapiens, UniProt P49840); test: Inhibition of full length GST-tagged human recombinant GSK3-alpha using FL-KRREILSRRP[ps]ERYR-NH2 as substrate incubated for 20 hrs
[3] = Metabolic stability in human liver microsomes assessed as parent compound remaining at 0.5 uM incubated for 10 mins by LC-MS/MS analysis; assay type: ADME, Microsome; conditions: read-out: Stability
[4] = Metabolic stability in mouse liver microsomes assessed as parent compound remaining at 0.5 uM incubated for 10 mins by LC-MS/MS analysis; assay type: ADME, Microsome; conditions: read-out: Stability
[5] = Plasma protein binding in mouse assessed as unbound fraction at 10 uM measured for 5 hrs by equilibrium dialysis based LC-MS/MS analysis; assay type: ADME, cell-free
[6] = Plasma protein binding in human assessed as unbound fraction at 10 uM measured for 5 hrs by equilibrium dialysis based LC-MS/MS analysis; assay type: ADME, cell-free
[7] = Permeability of compound at pH 5.5 incubated for 4 hrs by PAMPA assay; assay type: ADME; conditions: read-out: permeability
[8] = Permeability of compound at pH 7.4 incubated for 4 hrs by PAMPA assay; assay type: ADME; conditions: read-out: permeability
[9] = Permeability across apical to basolateral side in human Caco-2 cells at 3 uM incubated for 2 hrs by LC-MS/MS analysis; assay type: ADME, cell-based; conditions: read-out: permeability
[10] = Permeability across basolateral to apical side in human Caco-2 cells at 3 uM incubated for 2 hrs by LC-MS/MS analysis; assay type: ADME, cell-based; conditions: read-out: permeability
P-glycoprotein (ABCB1) = P-glycoprotein (ABCB1) (Homo sapiens, UniProt P08183); test: Substrate activity at P-glycoprotein in human Caco-2 cells assessed as efflux ratio of permeability across basolateral to apical side over apical to basolateral side at 3 uM incubated for 2 hrs by LC-MS/MS analysis; assay type: ADME, cell-based
[11] = Inhibition of tau 4R1N phosphorylation (unknown origin) at S396 residue transfected in human U2OS cells coexpressing GFP-tagged beta catenin incubated overnight by high content imaging assay
[12] = Clearance in 8 hr fasted C57BL6 mouse at 2 mg/kg, iv; assay type: ADME, organism-based; conditions: in vivo
[13] = Volume of distribution at steady state in 8 hr fasted C57BL6 mouse at 2 mg/kg, iv; assay type: ADME, organism-based; conditions: in vivo, read-out: Vdss
[14] = MRT in 8 hr fasted C57BL6 mouse at 2 mg/kg, iv; assay type: ADME, organism-based; conditions: in vivo
[15] = Half life in 8 hr fasted C57BL6 mouse at 2 mg/kg, iv; assay type: ADME, organism-based; conditions: in vivo
[16] = AUC tot in 8 hr fasted C57BL6 mouse at 10 mg/kg, po; assay type: ADME, organism-based; design: dose 10 mg/kg, route po; conditions: in vivo
[17] = Cmax in 8 hr fasted C57BL6 mouse at 10 mg/kg, po; assay type: ADME, organism-based; design: dose 10 mg/kg, route po; conditions: in vivo
[18] = Oral bioavailability in 8 hr fasted C57BL6 mouse at 10 mg/kg; assay type: ADME, organism-based; conditions: in vivo
[19] = target: Glycogen synthase kinase-3 beta (Homo sapiens, UniProt P49841); test: Inhibition of GSK3-beta (unknown origin)
Chain of Glycogen synthase kinase-3 beta (P49841 whole entry): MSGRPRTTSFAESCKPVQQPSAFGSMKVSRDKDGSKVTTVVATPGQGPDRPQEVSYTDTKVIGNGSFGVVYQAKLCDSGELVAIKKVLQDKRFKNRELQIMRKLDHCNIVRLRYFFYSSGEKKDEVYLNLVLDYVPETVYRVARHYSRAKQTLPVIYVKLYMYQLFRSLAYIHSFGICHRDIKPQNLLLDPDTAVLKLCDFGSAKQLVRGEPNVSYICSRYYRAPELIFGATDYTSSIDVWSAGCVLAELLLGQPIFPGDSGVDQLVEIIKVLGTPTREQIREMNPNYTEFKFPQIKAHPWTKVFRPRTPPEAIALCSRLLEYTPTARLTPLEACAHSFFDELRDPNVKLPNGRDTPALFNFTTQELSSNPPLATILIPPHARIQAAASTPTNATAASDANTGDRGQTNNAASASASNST

Chain of P-glycoprotein (ABCB1) (P08183 whole entry): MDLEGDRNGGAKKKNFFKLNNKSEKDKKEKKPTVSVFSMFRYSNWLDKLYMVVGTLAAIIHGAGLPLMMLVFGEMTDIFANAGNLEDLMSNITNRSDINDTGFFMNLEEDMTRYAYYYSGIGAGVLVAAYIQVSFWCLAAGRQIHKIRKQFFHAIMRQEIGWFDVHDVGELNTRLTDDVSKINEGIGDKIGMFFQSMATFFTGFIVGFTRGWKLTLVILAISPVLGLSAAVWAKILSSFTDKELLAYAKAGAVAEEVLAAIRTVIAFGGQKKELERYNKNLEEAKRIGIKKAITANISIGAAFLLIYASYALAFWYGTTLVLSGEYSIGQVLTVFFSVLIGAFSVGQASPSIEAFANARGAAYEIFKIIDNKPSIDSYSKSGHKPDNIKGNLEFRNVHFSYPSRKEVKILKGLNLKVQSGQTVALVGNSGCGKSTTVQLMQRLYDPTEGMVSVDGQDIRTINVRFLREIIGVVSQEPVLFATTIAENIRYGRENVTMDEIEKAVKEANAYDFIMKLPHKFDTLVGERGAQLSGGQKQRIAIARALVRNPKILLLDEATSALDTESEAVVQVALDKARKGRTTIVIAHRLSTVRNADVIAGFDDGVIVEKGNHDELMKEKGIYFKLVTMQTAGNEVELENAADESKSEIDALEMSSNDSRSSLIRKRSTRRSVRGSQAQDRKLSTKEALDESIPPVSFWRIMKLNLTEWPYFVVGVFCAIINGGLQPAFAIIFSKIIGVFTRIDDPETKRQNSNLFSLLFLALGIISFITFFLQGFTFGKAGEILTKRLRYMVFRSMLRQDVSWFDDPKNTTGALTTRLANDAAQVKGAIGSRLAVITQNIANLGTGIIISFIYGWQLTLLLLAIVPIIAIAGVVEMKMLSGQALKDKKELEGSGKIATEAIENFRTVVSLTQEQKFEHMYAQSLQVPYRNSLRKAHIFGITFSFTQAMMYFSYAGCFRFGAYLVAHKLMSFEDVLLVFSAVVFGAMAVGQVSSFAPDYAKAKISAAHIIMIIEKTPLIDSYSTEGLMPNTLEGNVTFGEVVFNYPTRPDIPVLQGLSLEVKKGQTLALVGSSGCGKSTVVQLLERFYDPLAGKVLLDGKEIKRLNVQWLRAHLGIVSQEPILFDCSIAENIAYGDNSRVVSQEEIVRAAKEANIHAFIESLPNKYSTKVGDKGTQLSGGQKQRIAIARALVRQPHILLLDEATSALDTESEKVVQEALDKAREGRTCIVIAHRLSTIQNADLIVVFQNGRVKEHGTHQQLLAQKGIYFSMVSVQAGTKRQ
Chain of Glycogen synthase kinase-3 alpha (P49840 whole entry): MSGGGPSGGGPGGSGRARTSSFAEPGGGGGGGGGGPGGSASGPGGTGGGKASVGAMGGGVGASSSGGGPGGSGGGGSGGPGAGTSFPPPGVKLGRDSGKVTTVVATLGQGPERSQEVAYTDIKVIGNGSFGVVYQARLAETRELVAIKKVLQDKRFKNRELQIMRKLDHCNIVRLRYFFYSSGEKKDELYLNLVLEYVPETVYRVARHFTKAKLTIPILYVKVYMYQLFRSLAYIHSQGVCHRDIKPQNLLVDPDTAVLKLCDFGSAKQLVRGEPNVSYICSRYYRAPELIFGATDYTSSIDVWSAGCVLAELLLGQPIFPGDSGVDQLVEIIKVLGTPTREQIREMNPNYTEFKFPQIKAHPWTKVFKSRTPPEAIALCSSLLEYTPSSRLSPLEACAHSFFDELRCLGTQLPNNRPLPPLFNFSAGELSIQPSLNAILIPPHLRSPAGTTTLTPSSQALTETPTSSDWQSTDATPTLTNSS

Compound: O=C(Nc1cccnc1)c1ccnn2c(NCC3CC3)cnc12
- IC50 [1]: 220 nM
- IC50 [2]: 510 nM

Compound: O=C(Nc1cccnc1)c1ccnn2cc(-c3ccccc3)nc12
- IC50 [2]: 6.7 nM

Compound: CC1CN(c2ccncc2NC(=O)c2ccnn3ccnc23)CCO1 (centres undefined)
- IC50 [1]: 7 nM

Compound: O=C(Nc1cnccc1N1CCOCC1)c1ccnn2c(NCC3CC3)cnc12
- IC50 [1]: 9 nM

Compound: O=C(Nc1cnccc1-c1ccccc1)c1ccnn2c(NCC3CC3)cnc12
- IC50 [1]: 3.5 nM
- IC50 [2]: 2 nM

Compound: CC1CN(c2ccncc2NC(=O)c2ccnn3cc(C4CC4)nc23)CCO1 (centres undefined)
- IC50 [1]: 2.6 nM
- remaining at 10 min, 0.5 µM [3]: 3%
- remaining at 10 min, 0.5 µM [4]: 4%
- fraction unbound at 5 h, 10 µM [5]: 0.031
- fraction unbound at 5 h, 10 µM [6]: 0.015
- Papp at 4 h [7]: 86.9 ×10⁻⁶ cm/s
- Papp at 4 h [8]: 107 ×10⁻⁶ cm/s
- Papp A→B at 2 h, 3 µM [9]: 22.3 ×10⁻⁶ cm/s
- Papp B→A at 2 h, 3 µM [10]: 13.3 ×10⁻⁶ cm/s
- clearance [12]: 49.5 mL/min/kg
- Vd [13]: 1.9 L/kg
- MRT [14]: 0.6 h
- half-life [15]: 1.1 h
- AUC [16]: 3.3 µM·h
- Cmax [17]: 1.3 µM
- bioavailability [18]: 37%
- efflux ratio at 2 h, 3 µM (P-glycoprotein (ABCB1)): < 1
- IC50 [11]: 60 nM

Compound: C[C@@H]1COCCN1c1ccncc1NC(=O)c1ccnn2cc(-c3ccccc3)nc12
- IC50 [1]: 3.4 nM

Compound: O=C(Nc1cnccc1N1CCC(F)(F)CC1)c1ccnn2ccnc12
- IC50 [1]: 4.6 nM
- IC50 [2]: 2.4 nM

Compound: O=C(Nc1cnc(Cl)cc1N1CCC(F)(F)CC1)c1ccnn2cc(-c3ccccc3)nc12
- IC50 [1]: 14 nM

Compound: COc1cncc(NC(=O)c2ccnn3cc(-c4ccccc4)nc23)c1
- IC50 [1]: 37 nM
- IC50 [2]: 7.5 nM

Compound: CC1CN(c2ccncc2NC(=O)c2ccnn3c(NCC4CC4)cnc23)CCO1 (centres undefined)
- IC50 [1]: 5.2 nM

Compound: Cc1ccncc1NC(=O)c1ccnn2c(NCC3CC3)cnc12
- IC50 [1]: 63 nM

Compound: CC(C)Oc1ccncc1NC(=O)c1ccnn2c(NCC3CC3)cnc12
- IC50 [1]: 6.7 nM

Compound: O=C(Nc1cnccc1-c1ccccc1)c1ccnn2cc(-c3ccccc3)nc12
- IC50 [1]: 3.6 nM
- remaining at 10 min, 0.5 µM [3]: 79%
- remaining at 10 min, 0.5 µM [4]: 83%
- fraction unbound at 5 h, 10 µM [5]: 0.003
- fraction unbound at 5 h, 10 µM [6]: < 0.001
- Papp at 4 h [7]: 20.2 ×10⁻⁶ cm/s
- Papp at 4 h [8]: 28.2 ×10⁻⁶ cm/s
- IC50 [11]: 910 nM

Compound: Cc1ccncc1NC(=O)c1ccnn2cc(-c3ccccc3)nc12
- IC50 [1]: 3.5 nM

Compound: C[C@H]1COCCN1c1ccncc1NC(=O)c1ccnn2cc(-c3ccccc3)nc12
- IC50 [2]: 0.32 nM

Compound: CC(C)OCCCC(=O)c1n[nH]cc1NC(=O)c1ccccc1
- IC50 [19]: 2 nM

The remaining lines, values ahead:

- IC50 [1]: 0.13 nM
- IC50 [2]: 0.1 nM
Compound: C[C@H]1CN(c2ccncc2NC(=O)c2ccnn3cc(-c4ccccc4)nc23)CCO1

- IC50 [1]: 0.37 nM
- IC50 [2]: 0.22 nM
- remaining at 10 min, 0.5 µM [3]: 40%
- remaining at 10 min, 0.5 µM [4]: 36%
- fraction unbound at 5 h, 10 µM [5]: 0.002
- fraction unbound at 5 h, 10 µM [6]: 0.005
- Papp at 4 h [7]: 58.1 ×10⁻⁶ cm/s
- Papp at 4 h [8]: 64.2 ×10⁻⁶ cm/s
- Papp A→B at 2 h, 3 µM [9]: 7 ×10⁻⁶ cm/s
- Papp B→A at 2 h, 3 µM [10]: 3 ×10⁻⁶ cm/s
- efflux ratio at 2 h, 3 µM (P-glycoprotein (ABCB1)): < 1
- IC50 [11]: 30 nM
Compound: O=C(Nc1cnccc1N1CCC(F)(F)CC1)c1ccnn2cc(-c3ccccc3)nc12

- IC50 [1]: 0.57 nM
- IC50 [2]: 0.38 nM
Compound: COc1ccccc1-c1cn2nccc(C(=O)Nc3cnccc3N3CCOC(C)C3)c2n1 (centres undefined)

- IC50 [1]: 1.9 nM
- IC50 [2]: 0.44 nM
Compound: O=C(Nc1cnccc1-c1ccc(F)cc1)c1ccnn2cc(C3CC3)nc12

- IC50 [1]: 0.42 nM
- IC50 [2]: 0.21 nM
- remaining at 10 min, 0.5 µM [3]: 31%
- remaining at 10 min, 0.5 µM [4]: 9%
- fraction unbound at 5 h, 10 µM [5]: 0.01
- fraction unbound at 5 h, 10 µM [6]: 0.012
- Papp at 4 h [7]: 7.8 ×10⁻⁶ cm/s
- Papp at 4 h [8]: 29.8 ×10⁻⁶ cm/s
- Papp A→B at 2 h, 3 µM [9]: 32.2 ×10⁻⁶ cm/s
- Papp B→A at 2 h, 3 µM [10]: 9.9 ×10⁻⁶ cm/s
- clearance [12]: 10.6 mL/min/kg
- Vd [13]: 1.5 L/kg
- MRT [14]: 2.4 h
- half-life [15]: 3.1 h
- AUC [16]: 47 µM·h
- Cmax [17]: 10.7 µM
- bioavailability [18]: 100%
- efflux ratio at 2 h, 3 µM (P-glycoprotein (ABCB1)): < 1
- IC50 [11]: 36 nM
Compound: O=C(Nc1cnccc1N1CCOCC1)c1ccnn2cc(-c3ccccc3)nc12

- IC50 [1]: 0.43 nM
- IC50 [2]: 0.18 nM
- IC50 [11]: 120 nM
Compound: O=C(Nc1cnccc1N1CCC(F)(F)CC1)c1ccnn2cc(C3CC3)nc12

- IC50 [1]: 1.1 nM
- IC50 [2]: 0.24 nM
Compound: O=C(Nc1cnccc1N1CCCCC1)c1ccnn2cc(-c3ccccc3)nc12

- IC50 [1]: 0.78 nM
- IC50 [2]: 0.23 nM
Compound: O=C(Nc1cnccc1N1CCOCC1)c1ccnn2cc(-c3ccc(C(F)(F)F)cc3)nc12

- IC50 [1]: 1.6 nM
- IC50 [2]: 1.1 nM
- remaining at 10 min, 0.5 µM [3]: 91%
- remaining at 10 min, 0.5 µM [4]: 92%
- fraction unbound at 5 h, 10 µM [5]: 0.002
- fraction unbound at 5 h, 10 µM [6]: 0.003
- Papp at 4 h [7]: 96 ×10⁻⁶ cm/s
Compound: O=C(Nc1cnccc1-c1ccc(F)cc1)c1ccnn2cc(-c3ccccc3)nc12

- IC50 [1]: 1.5 nM
Compound: CS(=O)(=O)c1ccncc1NC(=O)c1ccnn2cc(-c3ccccc3)nc12

- IC50 [1]: 0.87 nM
- IC50 [2]: 1.4 nM
- IC50 [11]: 41 nM
Compound: O=C(Nc1cnccc1N1CCC(F)(F)CC1)c1ccnn2c(NCC3CC3)cnc12

- IC50 [1]: 0.29 nM
- IC50 [2]: 0.09 nM
Compound: O=C(Nc1cnccc1OCC(F)(F)F)c1ccnn2cc(-c3ccccc3)nc12

- IC50 [1]: 1.4 nM
- IC50 [2]: 0.57 nM
Compound: CC1CN(c2ccncc2NC(=O)c2ccnn3cc(-c4ccc(C(F)(F)F)cc4)nc23)CCO1 (centres undefined)

- IC50 [1]: 0.7 nM
- IC50 [2]: 0.41 nM
- IC50 [11]: 83 nM
Compound: CC(C)Oc1ccncc1NC(=O)c1ccnn2cc(-c3ccccc3)nc12

- IC50 [1]: 0.82 nM
- IC50 [2]: 0.34 nM
Compound: C[C@@H]1CN(c2ccncc2NC(=O)c2ccnn3cc(-c4ccccc4)nc23)CCO1
